This assay deals with Escherichia coli strain ATCC25922. Description: standard microdilution assay to determine minimum inhibitory concentrations (MICs). The format is cell-based. Conditions: for E. coli ATCC25922 MIC: Escherichia coli strain ATCC25922, microdilution; for MIC: Escherichia coli, ATCC25922, Escherichia coli strain ATCC25922, microdilution, read-out: E. coli ATCC25922 MIC. The procedure:
Minimum inhibitory concentrations (MICs) are determined by the microdilution method, typically in a final volume of 100 microliters, according to protocols outlined by The Clinical and Laboratory Standards Institute [CLSI; formerly the National Committee for Clinical Laboratory Standards (NCCLS)]. See CLSI: Methods for dilution antimicrobial susceptibility tests for bacteria that grow aerobically; approved standard-fifth edition. Wayne, Pa.: NCCLS; 2000. The assays can be also be performed in microtiter trays according to conventional methodologies as published by the CLSI. See CLSI. Methods for Dilution Antimicrobial Susceptibility Tests for Bacteria That Grow Aerobically; Approved Standard—Seventh Edition. CLSI Document M7-A7 [ISBN 1-56238-587-9] CLSI, 940 West Valley Road, Suite 1400, Wayne Pa. 19087-1898 USA, 2006).
The compounds of the present invention were tested for antimicrobial activity. The compounds were run against Escherichia coli strain ATCC25922 using a standard microdilution assay to determine minimum inhibitory concentrations (MICs). […] A “N/A” means that data is unavailable. It will be recognized by one skilled in the art that the compounds can be assessed against other bacterial organisms and that the presentation of data for activity against Escherichia coli is illustrative and in no way is intended to limit the scope of the present invention. The compounds of the present invention can be assayed against a range of other microorganisms depending upon the performance activity desired to be gathered. Furthermore, the “+”, “−”, and “N/A” representation and the selection of a cutoff value of 16 micrograms/ml is also illustrative and in no way is intended to limit the scope of the present invention.

As to `N=C(N)NCCCN1CC=C(n2cc3cc(-c4ccc(S(=O)(=O)N(CC5CC5)C5CCNCC5)cc4)[nH]c3nc2=O)CC1` [Compound 969], the “E. coli ATCC25922 MIC” value is “+ (a “+” indicates that the compound has an MIC value of 16 micrograms/ml or less)”. For orientation: MIC means the smallest concentration in the dilution series that meets the test's criterion for growth inhibition. Turning to `NCCCN(CCCN)Cc1ccc(-n2cc3cc(-c4ccc(S(=O)(=O)N(CC(=O)O)C5CCNCC5)cc4)[nH]c3nc2=O)cc1` [Compound 230], the minimal inhibitory concentration (MIC) is above 16 µg/mL.

In the case of `CCOC(=O)C1(CN(C2CCNCC2)S(=O)(=O)c2ccc(-c3cc4cn(-c5ccc(CNCCCNC(=N)N)cc5)c(=O)nc4[nH]3)cc2)CC1` [Compound 878], the “E. coli ATCC25922 MIC” value is recorded as “+ (a “+” indicates that the compound has an MIC value of 16 micrograms/ml or less)”.

Take `N=C(N)NCCCNCc1ccc(-c2cn3cc(-c4ccc(C(=O)NC5CN6CCC5CC6)cc4)[nH]c3nc2=O)cc1` (stereo not drawn) [Compound 778]: the MIC is below 16 µg/mL. The same measure, in the same setting: to `N=C(N)NCCCNCc1ccc(-n2cc3cc(-c4cccc(OCCCO)c4)[nH]c3nc2=O)cc1` [Compound 1110] belongs above 16 µg/mL. `N=C(N)NCCCNCc1ccc(-n2cc3cc(-c4ccc(S(=O)(=O)CCCNC5CCNCC5)cc4)[nH]c3nc2=O)cc1` [Compound 1285]: the “E. coli ATCC25922 MIC” value is given as “+ (a “+” indicates that the compound has an MIC value of 16 micrograms/ml or less)”. Same read-out and setting: for `N=C(N)N[C@@H]1CCN(Cc2ccc(-n3cc4cc(-c5ccc(S(=O)(=O)N(CCCN6CCS(=O)(=O)CC6)C6CCNCC6)cc5)[nH]c4nc3=O)cc2)C1` [Compound 1222] the value was “− (a “−” indicates that the compound has an MIC value greater than 16 micrograms/ml)”.

With `N=C(N)NCCCNCc1ccc(-n2cc3cc(-c4cccc(S(=O)(=O)N(CCn5nccc5N)C5CCNCC5)c4)[nH]c3nc2=O)cc1` [Compound 1262], the “E. coli ATCC25922 MIC” value is “− (a “−” indicates that the compound has an MIC value greater than 16 micrograms/ml)”. The same measure, in the same setting: for `N=C(N)NCCCNCc1ccc(-n2cc3cc(-c4cc(Cl)cc(CCCCN)c4)[nH]c3nc2=O)cc1` [Compound 2068a] the value was “+ (a “+” indicates that the compound has an MIC value of 16 micrograms/ml or less)”; for `N=C(N)NCCCNC(=O)c1ccc(C2N=c3cc(-c4ccc(S(=O)(=O)N(CCCN5CCCCC5)C5CCNCC5)cc4)[nH]c3=NC2=O)cc1` (stereo not drawn) [Compound 1017], “+ (a “+” indicates that the compound has an MIC value of 16 micrograms/ml or less)”. Same read-out and setting: for `N=C(N)NCCCNCc1ccc(-n2cc3cc(-c4cc(OCC(F)CN)cc(OC(F)(F)F)c4)[nH]c3nc2=O)cc1` (stereo not drawn) [Compound 1463] the value was “+ (a “+” indicates that the compound has an MIC value of 16 micrograms/ml or less)”. For `COCc1cc2cn(-c3ccc(CNCCCN)cc3)c(=O)nc2[nH]1` [Compound 610], the minimal inhibitory concentration (MIC) is above 16 µg/mL.

As for `N=C(N)NCCCNCc1ccc(-n2cc3cc(-c4ccc(S(=O)(=O)N(CCCN5CCCCC5)C5CCNCC5)cc4)[nH]c3nc2=O)cc1` [Compound 839], the “E. coli ATCC25922 MIC” value is recorded as “+ (a “+” indicates that the compound has an MIC value of 16 micrograms/ml or less)”. Same read-out and setting: for `N=C(N)NCCCNCc1ccc(-n2cc3cc(-c4cc(C(=O)N5CCC(F)(F)CC5)cc(N5CCNCC5)c4)[nH]c3nc2=O)cc1` [Compound 1074] the value was “+ (a “+” indicates that the compound has an MIC value of 16 micrograms/ml or less)”. The same measure, in the same setting: for `N=C(N)NCCCNCc1ccc(-n2cc3cc(C4CCCN(Cc5cnc[nH]5)C4)[nH]c3nc2=O)cc1` (stereo not drawn) [Compound 2003a] the value was “− (a “−” indicates that the compound has an MIC value greater than 16 micrograms/ml)”. For `CCCCN1CC=C(c2cn3cc(-c4ccc(F)cc4)[nH]c3nc2=O)CC1` [Compound 565], the minimum inhibitory concentration (MIC) is above 16 µg/mL. Regarding `N=C(N)NCCCNCc1ccc(-n2cc3cc(-c4cc(CCCCN)cc(SC(F)(F)F)c4)[nH]c3nc2=O)cc1` [Compound 2046a], the “E. coli ATCC25922 MIC” value was “+ (a “+” indicates that the compound has an MIC value of 16 micrograms/ml or less)”. On to `CN(C)CCOc1ccccc1-c1cc2cn(-c3ccc(CNCCCNC(=N)N)cc3)c(=O)nc2[nH]1` [Compound 1167], for which the MIC was above 16 µg/mL.
